Measurements: patent US20080280996A1, “Use of Carophyllenes in the Manufacture of Medicaments and Treatment of Bodily Conditions of Inflammation and Inflammatory Pain” (priority 2004, published 2008)

Legend:
Type in all cases: in vivo
PAF-induced oedema = test: Platelet aggregation factor (PAF) oedema in mouse paw; conditions: mice, PAF 3 nmol/paw intraplantar; 50 mg/kg orally 1 h before; 30 to 120 min
Description: The test used below is described by Cunha et. al. in the publication Life Sci. 70:159-169, 2001. Male 25 g-35 g mice were slightly sedated with ether and were injected 50 μl saline containing platelet aggregation factor (PAF, 3 nmol/paw), intraplantar, in the right paw. The left paw received the same volume of saline and was taken as negative control. The swelling was measured with a plethysmometer (manufacturer: Ugo Basile, Italy) along various time intervals after the injection of the phlogistic agent. The difference between the volumes of the right and the left paw were quantified (in ml) and taken as an index of oedema. One hour before the test the animals were systemically treated (orally) with 50 mg/kg of alpha-humulene or trans-caryophyllene. Graph 5 below compares the inhibition of the volume of the oedema by administration of alpha-humulene (SA) and trans-caryophyllene (5B). Oedema volume measurement time intervals were 30, 45, 60, and 120 min. Each point represents the average of 5 animals, and the vertical bars the mean standard deviation.

COX-2 = test: Expression of enzyme COX-2 in carrageenin-injected rat paw (Western blot); conditions: 50 mg/kg orally 60 minutes before carrageenin 300 μg/paw, subcutaneous paw tissue
Description: The expression of enzymes COX-2 and iNOS were determined by Western blot according to the methodology described by Medeiros et. al. in the publication Circ Res. 28:1375-1382, 2004. Male 160-180 g rats were orally given 50 mg/kg of trans-caryophyllene. Animals treated with 0.9% (0.1 ml/10 g) saline were used as control. Another group of animals was treated with 0.5 mg/kg dexamethasone, subcutaneously, 4 hours before the test, and used as positive control. After 60 minutes, the animals received intraplantar injections of 100 μl of carrageenin (300 μg/paw) and were sacrificed after 180 minutes, and subcutaneous paw tissue was removed […] after the carrageenin injection. […] The protein concentration was determined by the Bradford method (BioRad Laboratories Inc. kit, Milan, Italy). […] The bands thus obtained were quantified using a chemoluminescence kit and densitometry analysis (relative units) in radiographic films. Graph 10 below (each result represents the average of 5 animals, and the vertical bars the mean standard error deviation) compares inhibition of expression of the COX2 enzymes, obtained by the administration of alpha-humulene and trans-caryophyllene, when evaluated in the subcutaneous tissue or the paw injected with carrageenin, compared to the expression of COX2 induced by carrageenin obtained by treatment with dexomethasone.

[1] = test system: arachidonic acid ear oedema; test: Arachidonic acid oedema in mouse ear; conditions: mice, arachidonic acid 2 mg/ear; topical ointment 0.025 to 0.2% caryophyllene applied 60 minutes before
Description: The ear oedema in the test below was measured according to Calixto et. al. in the publication Prostaglandins, 5: 515-526, 1991, with minor modifications. Male 25 g-35 g mice, in a first group, were topically applied, in the inner surface of the ears, an ointment comprising a range from 0.025 to 0.2% alpha-humulene or trans-caryophyllene. In the positive control group, the animals were topically applied 0.05 mg of phenidone per ear. After 60 minutes, the animals received 20 μl of arachidonic acid (2 mg/ear), dissolved in acetone, in the inner surface of the right ear. The oedema was measured using a digital micrometer, and the responses were expressed as μm, the difference between the ear thickness before and after the application of arachidonic acid. The responses of the animals treated with caryophyllenes were compared to those observed in the control group animals, treated with base ointment. Graphs 6A and 6B below compare the inhibition of the volume of the oedema by topic administration of alpha-humulene (6A) and trans-caryophyllene (6B). Oedema volume measurement was performed after application of 0.025%, 0.05%, 0.1, and 0.2% caryophyllene content ointment, compared to the oedema volume caused by the application of phenidone and arachidonic acid (C). Each point represents the average of 5 animals, and the vertical bars the mean standard error deviation.

PGE2 = test: Levels of PGE2 in carrageenin-injected rat paw exsudate (Elisa); conditions: 50 mg/kg orally 60 minutes before carrageenin 300 μg/paw, paw exsudate after 180 minutes
Description: The test used below is described by Pinheiro et. al. in the publication Inflamm. Res. 51: 603-610, 2002, with minor modifications. Male 160-180 g rats were orally given 50 mg/kg of trans-caryophyllene. Animals treated with 0.9% (0.1 ml/10 g) saline were used as control. Another group of animals was treated with 0.5 mg/kg dexamethasone, subcutaneously, 4 hours before the test, and used as positive control. After 60 minutes, the animals received intraplantar injections of 100 μl of carrageenin (300 μg/paw) and were sacrificed after 180 minutes. The exsudate of the paws was collected by dialysis with the help of two polyethylene canulas, and was utilized for the quantification of PGE2, with an Elisa kit, according to the manufacturer's instructions (R & D Systems®, USA). The tests were performed in duplicate, and repeated three times. The answers are expressed in pg/mg of tissue. Graph 9 below (each result represents the average of 5 animals, and the vertical bars the mean standard error deviation) compares inhibition of the PGE2 level growth induced by carrageenin in the paws of rats, by administration of alpha-humulene and trans-caryophyllene, compared to the effect obtained by treatment with dexomethasone.

| SMILES | PAF-induced oedema formation (PAF-induced oedema) | expression of enzymes COX2 induced by carrageenin in the paws of rats (COX-2) | arachidonic acid ear oedema formation [1] | growth of PGE2 levels induced by carrageenin in the paws of rats (PGE2) |
| --- | --- | --- | --- | --- |
| C/C1=C\CC/C(C)=C/CC(C)(C)/C=C/C1 [alpha-humulene] | markedly reduced PAF-induced oedema formation | markedly inhibited the expression | markedly reduced oedema formation, in a dose-dependent manner | markedly inhibited the growth of PGE2 levels |
| C=C1CC/C=C(\C)CC[C@@H]2[C@@H]1CC2(C)C [trans-caryophyllene] | markedly reduced PAF-induced oedema formation | markedly inhibited the expression | markedly reduced oedema formation, in a dose-dependent manner | markedly inhibited the growth of PGE2 levels |
